# Patent US20120003335A1, “CONSTITUTIVE ANDROSTANE RECEPTOR (CAR) AS A THERAPEUTIC TARGET FOR OBESITY AND TYPE TWO DIABETES” (UNIVERSITY OF PITTSBURGH-OF THE COMMONWEALTH SYSTEM OF …, priority 2008, published 2012)
# How the values were obtained:
# HFD-fed mice [1] = assay: VLDL secretion rate; format: in vivo; conditions: after 5-week treatment
# HFD-fed C57BL/6j mice = assay: Fasting serum glucose and lipid profile, HFD-fed mice; format: in vivo
# Text: (§1) Since obesity is strongly associated with insulin resistance, a typical characteristic of type two diabetes, whether the CAR agonist can also improve insulin sensitivity was examined. […] The insulin sensitizing effect of TCPOBOP was also evident in ob/ob mice (FIGS. 3C and 3D).
# [2] = tested on: C57BL/6J female mice fed with HFD; assay: Treatment of pre-existing HFD-induced obesity; format: in vivo
# Experimental: To determine whether CAR activation is effective in controlling obesity in mice with pre-existing obesity, C57BL/6J female mice were fed with HFD for six weeks, followed by 6 weeks of TCPOBOP (0.5 mg/kg, once a week) treatment when mice remained on HFD.
# CAR-/- mice = assay: Lipogenic and gluconeogenic gene expression in CAR-/- mice; format: in vivo; conditions: C57BL/6J and SvJ129 mixed background, HFD five week
# Text: The suppression of lipogenic and gluconeogenic gene expression was also seen in TCPOBOP-treated wild type mice of C57BL/6J and SvJ129 mixed background (data not shown).
# ob/ob mice [3] = assay: Insulin sensitivity by GTT and ITT, ob/ob mice; format: in vivo
# Text: as §1
# [4] = tested on: PPARα and its target genes; assay: Expression of beta-oxidation genes in liver and skeletal muscle; format: in vivo, mice
# Text: (§2) The effect of TCPOBOP on the fatty acid oxidation in the liver and skeletal muscle also was investigated. […] These include the suppression of long-chain acyl-CoA dehydrogenase (Aacdl), medium-chain acyl CoA dehydrogenase (Acadm) and HMG-CoA synthase (HMGCS2).
# HFD-fed mice [5] = assay: Leptin and adiponectin production and food intake; format: in vivo
# Text: Leptin is an adipokine primarily produced in WAT. […] HFD induced leptin mRNA expression as expected (FIG. 8A). […] The decreased production of leptin may have resulted from decreased fat mass, and the inhibition of food intake may have contributed to the anti-obesity effect.
# HFD-fed mice [6] = assay: Hepatic steatosis, adipose tissue size and adipocyte morphology; format: in vivo; conditions: treated five weeks
# [7] = tested on: C57BL/6J mice fed with high fat diet (HFD); assay: Prevention of high fat diet-induced obesity (body weight, MRI body composition); format: in vivo; conditions: male mice, HFD five weeks, 0.5 mg/kg once a week
# Experimental: Eight-week male C57BL/6J mice were fed with high fat diet (HFD) for five weeks and simultaneously treated with the CAR agonist TCPOBOP (0.5 mg/kg, once a week) or vehicle (DMSO). […] The effect of TCPOBOP on the fat mass was so dramatic that the differences were obvious and significant after one week of drug treatment (FIGS. 1A-b and 1A-c). At the end of five-week treatment, the body weight differences between TCPOBOP group and vehicle group were completely accountable by the gain of fat mass in the TCPOBOP group (FIG. 1B).
# Cyp2b10 = conditions: 0.5 mg/kg once a week
# [8] = tested on: gastrocnemius muscle derived from HFD-fed mice; assay: Mitochondrial β-oxidation rate in gastrocnemius muscle ([14C]-oleate)
# Text: as §2
# [9] = tested on: adipose triglyceride lipase (ATGL), hormone sensitive lipase (HSL); assay: Lipase expression in WAT; set-up: species or system mice; conditions: mouse, in vivo
# ob/ob mice [10] = assay: Fasting serum glucose and lipid profile, ob/ob mice; format: in vivo
# Text: as §1
# [11] = tested on: HFD-fed C57BL/6J male mice; assay: Insulin sensitivity by GTT and ITT, HFD-fed mice; format: in vivo; conditions: five weeks treatment
# Text: as §1
# [12] = tested on: lipogenic genes (Srebp-1c, Acc-1, Fas, Scd-1) and gluconeogenic enzymes (G6p, Pepck); assay: Lipogenic and gluconeogenic gene expression in tissues of HFD-fed mice; format: in vivo
# Text: To understand the mechanisms by which CAR inhibits obesity and improves insulin sensitivity, gene expression was profiled in several relevant tissues, including the liver, skeletal muscle, white adipose tissue (WAT) and brown adipose tissue (BAT) in HFD-fed C57BL/6J mice treated with TCPOBOP for one week.
# Since excessive VLDL production and triglyceride secretion contribute to the pathogenesis of hypertriglyceridemia, obesity and diabetes, VLDL secretion rate after a 5-week TCPOBOP treatment also was evaluated. […] The inhibition of VLDL secretion was consistent with the lower serum triglyceride level (data not shown) and inhibition of hepatic lipogenesis (FIG. 5A) in these animals.
# ob/ob mice [13] = assay: Obesity in genetically leptin deficient ob/ob mice; format: in vivo
# Text: TCPOBOP was also effective in the genetically leptin deficient and obese ob/ob mice. In this experiment, 7-week old female ob/ob mice were maintained in chow diet and treated with TCPOBOP or vehicle for eight weeks.
# [14] = tested on: BAT genes involved in energy expenditure; assay: BAT energy expenditure gene expression and oxygen consumption; set-up: species or system mice; conditions: mouse, in vivo
# Text: BAT plays an important role in regulating energy expenditure. The smaller BAT in TCPOBOP-treated mice prompted an examination of the expression of BAT genes involved in energy expenditure.
# [15] = short-term (one week) treatment
# [16] = HFD-fed C57BL/6J mice, treated one week
smiles,measurement,setting,value
"Clc1cnc(Oc2ccc(Oc3ncc(Cl)cc3Cl)cc2)c(Cl)c1 [TCPOBOP, 1,4-bis[2-(3,5 dichloropyridyloxy)] benzene]",VLDL secretion rate vs vehicle group,HFD-fed mice [1],significantly reduced
same,Fasting Glucose,HFD-fed C57BL/6j mice,102.8 ± 17.7 mg/dL
same,Free Fatty Acid,HFD-fed C57BL/6j mice; fasting serum,6.8 ± 0.6 µM
same,Insulin,HFD-fed C57BL/6j mice; fasting serum,1.57 ± 0.37 ng/mL
same,Total Cholesterol,HFD-fed C57BL/6j mice; fasting serum,89.7 ± 5.3 mg/dL
same,Total Triglyceride,HFD-fed C57BL/6j mice; fasting serum,132.8 ± 17.7 mg/dL
same,fat mass,"[2]; HFD six weeks, then 6 weeks 0.5 mg/kg once a week on HFD",inhibition of gain of fat mass
same,body weight course,"[2]; HFD six weeks, then 6 weeks 0.5 mg/kg once a week on HFD, vehicle group continued to gain",stabilized the mouse body weight
same,body weight vs vehicle group,[2]; after 5 weeks of drug treatment,significantly lower than the vehicle group
same,"expression of lipogenic and gluconeogenic genes in liver, skeletal muscle, WAT, BAT",CAR-/- mice,none of the lipogenic and gluconeogenic genes was significantly altered
same,insulin sensitizing effect (GTT and ITT),ob/ob mice [3],also evident
same,"expression of PPARα and its target genes involved in β-oxidation and ketogenesis, liver and skeletal muscle",[4]; chronic (five weeks) treatment,significantly suppressed
same,expression of PPARα,[4]; [15],modestly suppressed
same,expression of genes related to β-oxidation,[4]; [15],little effect
same,expression of adiponectin,HFD-fed mice [5]; HFD-fed mice,increased expression of adiponectin
same,leptin mRNA level vs vehicle-treated counterparts,HFD-fed mice [5]; HFD-fed mice,dramatically lower
same,leptin production at the protein level,HFD-fed mice [5]; HFD-fed mice,decreased leptin production
same,food intake,"HFD-fed mice [5]; mouse, in vivo",significantly reduced the food intake
same,adipocyte morphology,HFD-fed mice [6],adipocyte hypotrophy
same,hepatic steatosis,HFD-fed mice [6],ameliorated hepatic steatosis
same,sizes of abdomen WAT and BAT,HFD-fed mice [6],decreased sizes of abdomen WAT and BAT
same,"lean mass, TCPOBOP vs vehicle group",[7],not significantly different
same,gain of body weight,"[7]; after two weeks of drug treatment, vs vehicle (DMSO)",significantly inhibited gain of body weight
same,lean to body weight ratio,[7]; ratio decreased in vehicle-treated mice,remained steady
same,gain of fat mass (MRI),[7]; vs vehicle,significantly inhibited the gain of fat mass
same,Cyp2b10 gene expression in the liver,Cyp2b10,activation of Cyp2b10
same,substrate switch on addition of pyruvate,"[8]; pyruvate added to incubation buffer, vehicle mitochondria failed to switch",showed significant switch
same,accumulation of radiolabeled intermediates in the acid-soluble metabolite (ASM) (incomplete β-oxidation),[8]; vs vehicle group,much more dramatic reduction
same,rate of [14C]-oleate oxidation to CO2 (complete β-oxidation),[8]; vs vehicle group,"modest, although significant, decrease"
same,expression of adipose triglyceride lipase (ATGL) in WAT,[9],induced in WAT
same,expression of hormone sensitive lipase (HSL) in WAT,[9],but not the hormone sensitive lipase (HSL)
same,Free Fatty Acid,ob/ob mice [10],21.4 ± 1.54 µM
same,Total Cholesterol,ob/ob mice [10],90.2 ± 9.9 mg/dL
same,Total Triglyceride,ob/ob mice [10],126.3 ± 13.7 mg/dL
same,insulin sensitivity (GTT and ITT),[11],significantly improved insulin sensitivity
same,"Fas and Scd-1 gene expression in skeletal muscle, BAT and WAT",[12]; [16],Significant inhibition
same,expression of Acc-1 in BAT,[12]; [16],significantly inhibited
same,"expression of lipogenic genes Srebp-1c, Acc-1, Fas and Scd-1 in the liver",[12]; [16],suppressed the expression of lipogenic genes
same,expression of glucose-6-phosphatase (G6p) and phosphoenolpyruvate carboxykinase (Pepck),[12]; after 5-week treatment,significantly inhibited
same,gain of fat mass,"ob/ob mice [13]; 7-week old female ob/ob mice, chow diet, eight weeks treatment",less gain of fat mass
same,body weight vs vehicle group,ob/ob mice [13]; end of eight week treatment,significantly lower body weight
same,fat mass,ob/ob mice [13]; end of eight week treatment,deceased fat mass
same,lean mass,ob/ob mice [13]; end of eight week treatment,increased lean mass
same,"BAT expression of PGC-1b, mCPT-I, LCAD, D2, UCP-1, UCP-2 and UCP-3",[14],significantly increased
same,oxygen consumption,[14],increased oxygen consumption
